Reference: patent US20190358264A1, “METHODS OF TREATING DISEASES ASSOCIATED WITH ILC2 CELLS” (Limm Therapeutics, SA, priority 2016, published 2019)

Tested on: ILC2s
Assay: In vitro activation of purified ILC2s, type 2 cytokine protein by intracellular staining
Type: cell-based, mouse
Settings: purified ILC2s, Nmur1 competent vs deficient; NMUR1-dependent
Experimental: FIGS. 10a-10d: FIG. 10a, Ki67 expression in intestinal ILC2s after an overnight in vitro stimulation with NmU23 alone (100 ng/mL, Phoenix Pharmaceutical) or NmU23 together with the survival cytokines Interleukin (IL)-2 and/or IL-7 (10 ng/mL). FIG. 10b, Ki67 expression in intestine ILC2 after in vivo administration of NmU23 (4 g/day during 2 days). n=5. FIG. 10c, ILC2-derived type 2 cytokines (IL-5, IL-13 and Amphiregulin (Areg)) in sorted intestine ILC2 after an overnight stimulation with NmU23, mouse recombinant IL-25 or IL-33 (R&D) (10, 50 and 100 ng/mL). Negative control: unstimulated ILC2, Positive control: ILC2 activated with phorbol 12-myristate 13-acetate (PMA, 50 ng/ml) plus ionomycin (500 ng/ml). n=3. FIG. 10d, Dot plots representative of the cytokine production with increasing dose of NmU23, rIL-25 and rIL-33. *P<0.05; **P<0.01; ***P<0.001; ****P<0.0001; ns not significant.
For in vitro experiments, purified lung and small intestine lamina propria ILC2s were FBS starved for 2 hours prior to stimulation and cultured in complete RPMI (supplemented with 10% foetal bovine serum (FBS), 1% hepes, sodium pyruvate, glutamine, streptomycin and penicillin) at 37° C. For mRNA analysis, ILC2s were stimulated overnight with recombinant mouse Neuromedin U 23 peptide (NmU23, 100 ng/mL; Phoenix pharmaceuticals). Both NmU23-stimulated and control ILC2s were cultured in the presence of IL-2 and IL-7 (10 ng/mL; Peprotech). ILC2s were lysed using RLT buffer (Qiagen). For cytokine protein analysis, ILC2s were incubated exclusively with brefeldin A (eBioscience) for 12 hours prior to intracellular staining. For in vivo experiments, B6 mice were injected intraperitoneal with NmU23 peptide (2 g/day) during Nippostrongylus brasiliensis infection or with a single dose of NmU23 (20 μg) and analyzed after 8 hours. Control mice were treated with PBS alone.
Intracellular staining was performed using IC fixation/permeabilization kit (eBioscience). Flow cytometry analysis and cell sorting were performed using BD LSRFORTESSA and BD FACSAria flow cytometers (BD Biosciences). […]

Substance: recombinant mouse Neuromedin U 23 peptide (FKAEYQSPSVGQSKGYFLFRPRN; listed as Mus musculus) [NmU23, NMUR1 agonist neuropeptide, Phoenix pharmaceuticals]
- expression of the type 2 cytokine proteins IL-5 and IL-13 in ILC2s: potent expression
